Consider five compounds from patent publication US20090318430A1, “MEDICAL USE OF CYCLIN DEPENDENT KINASES INHIBITORS” (ASTEX THERAPEUTICS LIMITED, priority 2006, published 2009).

For orientation: solubility means the dissolved amount per volume that the medium holds. The term pIC50 denotes the IC50 on a negative log10 scale, so that one unit is a factor of ten.

One series relates to polycystic cpk mice. Particulars: cited from earlier work.
Series [1] deals with rat model of focal cerebral ischemia. Particulars: cited from earlier work.
Series [2] in a line: Solubility of the acid addition salt. Format: physicochemical.
In series [3] the target is T1, Cdk5/p35 enzyme (Upstate) (Homo sapiens, UniProt Q00535).
T1 construct: purchased Upstate
T1 sequence (Q00535 whole entry): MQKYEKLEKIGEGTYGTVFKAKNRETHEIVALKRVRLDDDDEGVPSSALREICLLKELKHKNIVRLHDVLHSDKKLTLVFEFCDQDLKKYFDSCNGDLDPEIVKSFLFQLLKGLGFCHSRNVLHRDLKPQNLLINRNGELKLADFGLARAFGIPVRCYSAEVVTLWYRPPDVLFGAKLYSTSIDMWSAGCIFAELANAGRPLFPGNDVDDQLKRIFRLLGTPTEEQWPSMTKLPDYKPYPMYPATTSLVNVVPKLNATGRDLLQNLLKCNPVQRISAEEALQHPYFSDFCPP
T1 sequence (Q15078 whole entry partner): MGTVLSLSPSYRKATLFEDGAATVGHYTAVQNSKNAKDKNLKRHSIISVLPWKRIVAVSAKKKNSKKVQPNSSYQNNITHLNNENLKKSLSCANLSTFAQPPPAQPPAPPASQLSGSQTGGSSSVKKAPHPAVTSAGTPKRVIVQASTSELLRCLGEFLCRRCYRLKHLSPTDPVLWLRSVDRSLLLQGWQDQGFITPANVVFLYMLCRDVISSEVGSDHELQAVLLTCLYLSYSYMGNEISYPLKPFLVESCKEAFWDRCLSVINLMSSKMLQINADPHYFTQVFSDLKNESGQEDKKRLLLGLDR
Kind of series: Alternative CDK5 assay (DELFIA, biotinylated histone H1 peptide). The format is biochemical. Conditions: Cdk5/p35, ATP, 30 minutes at room temperature, TRF read-out.
Method: In a 96-well polypropylene plate add 5 μl of 5× test compound (in 12.5% DMSO) per well. Prepare an assay mix of 2.5 μM biotinylated histone H1 peptide (Bachem), 2.5 mM DTT in 1× assay buffer (10× assay buffer contains 250 mM Tris-HCl pH7.5, 2.5 mM MgCl2, 0.025 Brij-35, 0.1 mg/ml BSA. Add 10 μl of assay mix per well. Prepare the Cdk5/p35 enzyme (Upstate) at 0.625 nM in 1× assay buffer with 37.5 μM ATP on ice. Add 10 μl per well to start the reaction, seal with sealing film and incubate for 30 minutes at room temperature on a plate shaker. Stop the reaction by the addition of 100 μl stop buffer (1× Blocker BSA-Pierce, 0.05% surfact-AMPS-20, 100 mM EDTA). Shake plate for 1 minute. Transfer 100 μl of the stopped reaction to a black Neutravidin coated plate. Shake at room temperature for 30 minutes. Wash plate 5× with 200 μl TBS-Tween. Add 100 μl of anti-phospho cdk1-substrate antibody (Calbiochem) at 1:1500 in 1×DELFIA assay buffer (Perkin Elmer) to each well. Shake for 1 hour at room temperature. Wash plate 5× with 200 μl TBS-Tween. Add 100 μl of Eu-labelled anti-rabbit IgG at 1:300 in 1×DELFIA assay buffer per well. Shake for 1 hour at room temperature. Wash plate 5× with 200 μl TBS-Tween. Add 100 μl DELFIA enhancement solution (Perkin Elmer) per well and incubate 5 minutes on a plate shaker at <900 rpm. Read using TRF enabled fluorimeter at 335ex/620em.

Series [4] can be described thus: Vapour sorption/desorption analysis. Format: physicochemical. Here is the method:
Crystals of 4-(2,6-dichlorobenzoylamino)-1H-pyrazole-3-carboxylic acid (1-methanesulphonyl-piperidin-4-yl)-amide prepared by the recrystallisation method of Example 11 Step 8 were subjected to vapour sorption/desorption analysis in order to test for the propensity of this sample to form a hydrated state.
Approximately 20 mg of sample was placed into a wire-mesh vapour sorption balance pan and loaded into an ‘IgaSorp’ vapour sorption balance (Hiden Analytical Instruments) held at 25+/−0.1° C. The sample was then dried by maintaining a 0% humidity environment (using mass flow control apparatus) until no further weight change was recorded. Subsequently, the sample was then subjected to a ramping profile from 0-90% relative humidity (% RH) at 10% RH increments, maintaining the sample at each step until equilibration had been attained (99.5% step completion).
Upon reaching equilibration, the % RH within the apparatus was ramped to the next step and the equilibration procedure repeated. After completion of the sorption cycle, the sample was then dried using the same procedure. The weight change during the sorption/desorption cycles was then monitored, allowing for the hygroscopic nature of the sample to be determined.

For series [5], the system named is formalin-induced nociceptive responses in rats. Particulars: cited from earlier work.
For series [6], the system named is jck and cpk mouse models of PKD. Conditions: cited from earlier work.

pIC50: −log10 of the molar value. Structures can show the parent of a compound that is named as a salt.

As for `CC(=O)O[C@H]1C(=O)[C@@]2(C)[C@H]([C@H](OC(=O)c3ccccc3)[C@]3(O)C[C@H](OC(=O)[C@H](O)[C@@H](NC(=O)c4ccccc4)c4ccccc4)C(C)=C1C3(C)C)[C@]1(OC(C)=O)CO[C@@H]1C[C@@H]2O` [taxol], the “progression of PKD and survival” value in the series on polycystic cpk mice is “inhibit the progression of PKD and prolongs the survival”. Take `CN1CC[C@H](c2c(O)cc(O)c3c(=O)cc(-c4ccccc4Cl)oc23)[C@H](O)C1` [flavopiridol]: the neuronal death entry in series [1] was “significantly reduce neuronal death”. Turning to `O=C(NC1CCNCC1)c1n[nH]cc1NC(=O)c1c(Cl)cccc1Cl` [methanesulphonic acid salt, 4-(2,6-dichlorobenzoylamino)-1H-pyrazole-3-carboxylic acid piperidin-4-ylamide methanesulphonate], the solubility in series [2] (pH 4.6, aqueous buffer, buffer formed from acetic acid and sodium acetate, solution pH approximately 4.6) was ~35 mg/mL. Also, the water solubility entry in series [2] (water, qualitative statement) was “excellent water solubility”. As for `CS(=O)(=O)N1CCC(NC(=O)c2n[nH]cc2NC(=O)c2c(Cl)cccc2Cl)CC1` [Example 12, 4-(2,6-dichloro-benzoylamino)-1H-pyrazole-3-carboxylic acid (1-methanesulphonyl-piperidin-4-yl)-amide], the pIC50 in series [3] is > 7.00. The “weight increase upon equilibration at 90% RH” value in series [4] (crystals, 25 °C, stepwise 0-90% relative humidity) is given as 0.24%. In addition, in series [4] (storage in elevated humidity conditions), the “hygroscopicity / hydrate formation” value is “physically stable with regard to hygroscopicity”. Turning to `CC[C@H](CO)Nc1nc(NCc2ccccc2)c2ncn(C(C)C)c2n1` [roscovitine], the formalin-induced nociceptive responses result in series [5] is given as “attenuate the formalin-induced nociceptive responses”. For the same compound, the cystic disease entry in series [6] is “effective arrest of cystic disease”.
